# Columns and labels:
# [1] = system: balloon injured rat carotid arteries; assay: Inhibition of late neointimal lesion formation in the 28 day rat carotid artery balloon injury model; type: in vivo; settings: for percent inhibition of neointimal lesion formation: 28 days post-balloon injury
# Method: A1. Inhibition of Late Neointimal Lesion Formation in the 28 Day Rat Carotid Artery Balloon Injury Model
# Compounds of formula I are tested in the following rat model.
# Rats are dosed orally with placebo or a compound of formula I. Daily dosing starts 3 days prior to surgery and continues for 31 days. Rat carotid arteries are balloon injured using a method described by Clowes et al. Lab. Invest. 1983;49;208-215. Following sacrifice at 28 days post-balloon injury, carotid arteries are removed and processed for histologic and morphometric evaluation. […] For example for 40-O-(2-hydroxyethyl)-rapamycin administered at 0.5, 1.0, and 2.0 mg/kg, the percent inhibition is similar at all three doses: inhibition is 31% at the lowest dose (0.5 mg/kg) and 39% at the highest dose (2.0 mg/kg). Compounds of formula I, e.g. 40-O-(2-hydroxyethyl)-rapamycin, have the beneficial effect to inhibit lesions at 4 weeks post-ballooning.
# [2] = system: ballooned carotid of Sprague Dawley rats; assay: Inhibition of restenosis at 14 days in the rat carotid stent model (perivascular local delivery); type: in vivo, Sprague Dawley rat; settings: administered locally (perivascular, osmotic pump) at 10 to 200 μg/day
# Method: A.3 Inhibition of Restenosis at 14 Days in the Rat Carotid Stent Model
# Male Sprague Dawley rats weighing […] are housed individually and allowed to acclimate prior to surgery. All animals receive standard rat chow and water ad libitum. Group size is 12 animals per group.
# The drug(s) administration is perivascular. A segment of ballooned carotid is encircled with a 1 cm length of silastic tubing (0.25 inch inside diameter, 0.47 inch outside diameter) to which is attached a catheter which feeds into an osmotic pump containing either compound or vehicle. This delivery system provides continuous, local delivery to the adventitia of the wrapped portion of vessel. Local drug(s) administration ranges between 5 μg and 10 mg, locally per day, depending on the solubility characteristics of the individual compounds. […]
# Animals are killed at 14 days post-balloon injury. […] Animals are killed by administration of an overdose of ketamine and rompun, the osmotic pumps are recovered and the volume of remaining content is recorded to ensure that pump failure has not occurred.
# Carotid arteries are excised and immersion fixed, then transferred to Ringer's solution. […] The intimal lesion area and the medial area are determined by measurement of the internal elastic lamina, the external elastic lamina and the vessel/lumen interface.
# [3] = system: New Zealand White rabbit iliac arteries (balloon injury and stent); assay: Inhibition of restenosis at 28 days in the rabbit iliac stent model; type: in vivo
# Method: A.2 Inhibition of Restenosis at 28 Days in the Rabbit Iliac Stent Model
# A combined angioplasty and stenting procedure is performed in New Zealand White rabbit iliac arteries. Iliac artery balloon injury is performed by inflating a 3.0 x 9.0 mm angioplasty balloon in the mid-portion of the artery followed by “pull-back” of the catheter for 1 balloon length. Balloon injury is repeated 2 times, and a 3.0×12 mm stent is deployed at 6 atm for 30 seconds in the iliac artery. Balloon injury and stent placement is then performed on the contralateral iliac artery in the same manner. A post-stent deployment angiogram is performed. All animals receive oral aspirin 40 mg/day daily as anti-platelet therapy and are fed standard low-cholesterol rabbit chow. Twenty-eight days after stenting, animals are anesthetized and euthanized and the arterial tree is perfused at 100 mmHg with lactated Ringer's for several minutes, then perfused with 10% formalin at 100 mmHg for 15 minutes. The vascular section between the distal aorta and the proximal femoral arteries is excised and cleaned of periadventitial tissue. The stented section of artery is embedded in plastic and sections are taken from the proximal, middle, and distal portions of each stent. All sections are stained with hematoxylin-eosin and Movat pentachrome stains. Computerized planimetry is performed to determine the area of the internal elastic lamina (IEL), external elastic lamina (EEL) and lumen. The neointima and neointimal thickness is measured both at and between the stent struts. The vessel area is measured as the area within the EEL. Data are expressed as mean±SEM. Statistical analysis of the histologic data is accomplished using analysis of variance (ANOVA) due to the fact that two stented arteries are measured per animal with a mean generated per animal. A P<0.05 is considered statistically significant.
# A compound of formula I, e.g. 40-O-(2-hydroxyethyl)-rapamycin, is administered orally by gavage at a loading dose of 1.5 mg/kg one day prior to stenting, then dosed at 0.75 mg/kg/day from the day of stenting until day 27 post-stenting. In this model, the treatment with the compounds of formula I results in a marked reduction in the extent of restenotic lesion formation: for example, the treatment with 40-O-(2-hydroxyethyl)-rapamycin produces a significant (P<0.03) reduction in neointimal thickness (40% reduction), neointimal area (24% reduction), and percent arterial stenosis (26% reduction) with a significant 32% increase in lumen area. There is extensive neointimal formation in placebo-treated animals at 28 days, with the lesions consisting of abundant smooth muscle cells in proteoglycan/collagen matrix and apparent full endothelial healing.
# [4] = Release of 40-O-(2-hydroxyethyl)-rapamycin from coated stents; type: physicochemical; settings: PBS pH 7.4 or PEG/water 40/60 v/v, 37° C., solutions changed daily; stable = less than 10% of variation of the drug release
# Method: Four 2 cm pieces of coated stents as described above are placed into 100 ml of phosphate buffer solution (PBS) having a pH of 7.4. Another 4 pieces from each series are placed into 100 ml polyethylene glycol (PEG)/water solution (40/60 v/v, MW of PEG=400). The stent pieces are incubated at 37° C. in a shaker. The buffer and PEG solutions are changed daily and different assays are performed on the solution to determine the released 40-O-(2-hydroxyethyl)-rapamycin concentrations. Such assays can show a stable release of 40-O-(2-hydroxyethyl)-rapamycin from coated stents for more than 45 days. By the term “stable release of 40-O-(2-hydroxyethyl)-rapamycin” is meant less than 10% of variation of the drug release. Controlled release techniques used by a person skilled in the art allow an unexpected easy adaptation of the required drug release rate. Thus, by selecting appropriate amounts of reactants in the coating mixture it is possible to easily control the bioeffectiveness of the rapamycin or rapamycin derivastive coated stents.
# [5] = system: dialysis patients with indwelling large bore catheter; assay: Prevention or reduction of vascular access dysfunction after insertion of an indwelling catheter into the vein of a patient; type: in vivo; settings: daily dose of 0.75 to 20 mg, 3 month treatment, observation period of 6 months
# Method: A5. Prevention or Reduction of Vascular Access Dysfunction in Association with the Insertion of an Indwelling Catheter into the Vein of a Patient
# One hundred fifty prospective dialysis patients, who undergo successful insertion of an indwelling, large bore catheter, into a vein are selected for the study. […] In addition, patients may also be given a calcium antagonist, nitrates and/or anti-platelet agents. These drugs are administered for 3 consecutive months following catheter insertion.
# [6] = oral loading dose 1.5 mg/kg, then 0.75 mg/kg/day to day 27, 28 days after stenting, P<0.03
compound,measurement,setting,value
CO[C@H]1C[C@@H]2CC[C@@H](C)[C@@](O)(O2)C(=O)C(=O)N2CCCC[C@H]2C(=O)O[C@H]([C@H](C)C[C@@H]2CC[C@@H](OCCO)[C@H](OC)C2)CC(=O)[C@H](C)/C=C(\C)[C@@H](O)[C@@H](OC)C(=O)[C@H](C)C[C@H](C)/C=C/C=C/C=C/1C [40-O-(2-hydroxyethyl)-rapamycin],percent inhibition of neointimal lesion formation,[1]; 0.5 mg/kg oral daily,31%
same,percent inhibition of neointimal lesion formation,[1]; 2.0 mg/kg oral daily,39%
same,neointimal lesion formation at 28 days following balloon injury,[1]; oral dose of from 0.5 to 2.0 mg/kg,significantly reduce neointimal lesion formation
same,neointimal lesion formation at 14 days post ballooning,[2],reduces neointimal lesion formation
same,histology of the intima in arterial segments,"[3]; majority of arterial segments, 28 days after stenting",the intima is well healed
same,endothelialization of stented arteries (scanning electron microscopic analysis),"[3]; n=4 arteries, oral 1.5 mg/kg loading, 0.75 mg/kg/day, 28 days",84%
same,increase in lumen area,"[3]; oral loading dose 1.5 mg/kg, then 0.75 mg/kg/day to day 27, 28 days after stenting",32%
same,reduction in neointimal area,[3]; [6],24%
same,reduction in neointimal thickness,[3]; [6],40%
same,reduction in percent arterial stenosis,[3]; [6],26%
same,duration of stable release from coated stents,[4],more than 45 days
same,prevention or reduction of vascular access dysfunction after catheter insertion,[5],demonstrate the efficacy
